From US4363922A, “Esters of antibiotic nodusmicin” (priority 1981, dated 1982)
In brackets after ≈: the same amount, converted by molar mass. Like-named read-outs stand apart in the source and are kept apart here.

Tests used:
S.aureus UC 80 = test: Dipped disc agar diffusion assay, S. aureus; conditions: for zone of inhibition at 1000 µg/mL: Staphylococcus aureus, UC80, 16 h
S.aureus UC-570 = test: Minimum Inhibitory Concentration, microplate broth-dilution, S. aureus UC-570; conditions: for MIC: Staphylococcus aureus
S.aureus UC-76 = test: Minimum Inhibitory Concentration, microplate broth-dilution, S. aureus UC-76; conditions: for MIC: Staphylococcus aureus
S.pyrogenes UC-152 = test: Minimum Inhibitory Concentration, microplate broth-dilution, S. pyrogenes UC-152
S.lutea UC-130 = test: Dipped disc agar diffusion assay, S. lutea; conditions: for zone of inhibition at 1000 µg/mL: Micrococcus luteus, UC130, 16 h
S.aureus UC-746 = test: Minimum Inhibitory Concentration, microplate broth-dilution, S. aureus UC-746; conditions: for MIC: Staphylococcus aureus
[1] = Solubility noted in the MIC determination; conditions: BHI broth
B. fragilis = test: Antibiotic activity against B. fragilis; type: cell-based
K. pneumoniae = test: Antibiotic activity against K. pneumoniae; type: cell-based
Mycobacterium avium = test: Antibiotic activity against Mycobacterium avium; type: cell-based
S. lutea = test: Antibiotic activity against S. lutea; type: cell-based
C. perfringens = type: cell-based
[2] = read-out: Agar Diffusion 1 mg./ml. S.aureus UC 80 (inhibition zone), 1 mg./ml., 12.7 mm paper disc, 16 hours
[3] = UC570, read-out: MIC S.aureus UC-570
[4] = UC76, read-out: MIC S.aureus UC-76
[5] = read-out: MIC S.pyrogenes UC-152, BHI broth
[6] = read-out: Agar Diffusion 1 mg./ml. S.lutea UC-130 (inhibition zone)
[7] = UC746, read-out: MIC S.aureus UC-746
[8] = UC570, read-out: MIC S.aureus UC-570, BHI broth, sensitive strain
[9] = UC76, read-out: MIC S.aureus UC-76, BHI broth, sensitive strain
[10] = UC746, read-out: MIC S.aureus UC-746, BHI broth, strain resistant to tetracycline
[11] = read-out: MIC S.pyrogenes UC-152
[12] = 1 mg./ml., 12.7 mm paper disc, 16 hours

Compound COC1CC2C=CC3C4OC2(C(C)=CC(C)C(C(C)O)OC1=O)C3C(O)C(C)C4OC(=O)c1ccsc1 (stereo not drawn) [U-60,910, 9-O-Thiophene-3-carbonyl-nodusmicin] has a zone of inhibition at 1000 µg/mL (S.aureus UC 80; [2]) of 35 mm, a zone of inhibition at 1000 µg/mL (S.aureus UC 80; read-out: zone of inhibition, S. aureus, 1 mg./ml., 0.5 inch disc, agar tray, strain not stated) of 35 mm and an MIC (S.aureus UC-570; [3]) of 0.25 µg/mL (≈ 0.469 µM). For the same compound, the MIC (S.aureus UC-76; [4]) was 0.5 µg/mL (≈ 0.939 µM), the MIC (S.pyrogenes UC-152; [5]) was 125 µg/mL (≈ 235 µM) and the zone of inhibition at 1000 µg/mL (S.lutea UC-130; [6]) was 40 mm. For the same compound, the zone of inhibition at 1000 µg/mL (S.lutea UC-130; read-out: zone of inhibition, S. lutea) was 40 mm and the MIC (S.aureus UC-746; [7]) was 0.5 µg/mL (≈ 0.939 µM).

For COC1CC2C=CC3C4OC2(C(C)=CC(C)C(C(C)O)OC1=O)C3C(O)C(C)C4OC(=O)c1ccc([N+](=O)[O-])[nH]1 (stereo not drawn) [U-61,427, 9-O--5-Nitropyrrole-2-carbonyl-], the MIC (S.aureus UC-570; [8]) was 250 µg/mL (≈ 446 µM), the MIC (S.aureus UC-76; [9]) was 125 µg/mL (≈ 223 µM) and the MIC (S.pyrogenes UC-152; [5]) was 250 µg/mL (≈ 446 µM). It also gave a zone of inhibition at 1000 µg/mL (S.lutea UC-130; [6]) of 32 mm and an MIC (S.aureus UC-746; [10]) of 125 µg/mL (≈ 223 µM).

For COC1CC2C=CC3C4OC2(C(C)=CC(C)C(C(C)O)OC1=O)C3C(O)C(C)C4OC(=O)c1ccccn1 (stereo not drawn) [U-60,909, 9-O--Picolinoyl-], the MIC (S.aureus UC-570; [3]) was over 250 µg/mL, the MIC (S.aureus UC-76; [4]) was over 250 µg/mL and the MIC (S.pyrogenes UC-152; [11]) was over 250 µg/mL. The zone of inhibition at 1000 µg/mL (S.lutea UC-130; [6]) was 31 mm and the MIC (S.aureus UC-746; [7]) was over 250 µg/mL.

With COC1CC2C=CC3C4OC2(C(C)=CC(C)C(C(C)O)OC1=O)C3C(O)C(C)C4OC(=O)c1cccnc1 (stereo not drawn) [U-60,906, 9-O--Nicotinoyl-] the MIC (S.aureus UC-570; [3]) was 250 µg/mL (≈ 474 µM), the MIC (S.aureus UC-76; [4]) was 250 µg/mL (≈ 474 µM) and the MIC (S.pyrogenes UC-152; [11]) was 2500 µg/mL (≈ 4740 µM). It also gave a zone of inhibition at 1000 µg/mL (S.lutea UC-130; [6]) of 32 mm and an MIC (S.aureus UC-746; [7]) of 250 µg/mL (≈ 474 µM).

COC1CC2C=CC3C4OC2(C(C)=CC(C)C(C(C)O)OC1=O)C3C(O)C(C)C4OC(=O)c1ccncc1 (stereo not drawn) [U-60,925, 9-O--Isonicotinoyl] gave an MIC (S.aureus UC-570; [3]) of 250 µg/mL (≈ 474 µM), an MIC (S.aureus UC-76; [4]) of 250 µg/mL (≈ 474 µM) and an MIC (S.pyrogenes UC-152; [11]) of over 250 µg/mL. For the same compound, the zone of inhibition at 1000 µg/mL (S.lutea UC-130; [6]) was 38 mm and the MIC (S.aureus UC-746; [7]) was 250 µg/mL (≈ 474 µM).

With COC1CC2C=CC3C4OC2(C(C)=CC(C)C(C(C)OC(=O)c2ccc[nH]2)OC1=O)C3C(O)C(C)C4OC(=O)c1ccc[nH]1 (stereo not drawn) [U-60,908, 9,18-O--Dipyrrole-2-carbonyl-] the zone of inhibition at 1000 µg/mL (S.aureus UC 80; [2]) was 24 mm, the “insoluble” value [1] was “insoluble” and the zone of inhibition at 1000 µg/mL (S.lutea UC-130; [6]) was 29 mm.

Work on COC1CC2C=CC3C4OC2(C(C)=CC(C)C(C(C)O)OC1=O)C3C(O)C(C)C4OC(=O)c1ccc([N+](=O)[O-])o1 (stereo not drawn) [U-60,990, 9-O--5-Nitrofuroyl] yielded an MIC (S.aureus UC-570; [3]) of 31.2 µg/mL (≈ 55.6 µM), an MIC (S.aureus UC-76; [4]) of 31.2 µg/mL (≈ 55.6 µM) and an MIC (S.pyrogenes UC-152; [11]) of 125 µg/mL (≈ 223 µM). For the same compound, the zone of inhibition at 1000 µg/mL (S.lutea UC-130; [6]) was 33 mm and the MIC (S.aureus UC-746; [7]) was 62.5 µg/mL (≈ 111 µM).

With 9-O--3-Furoyl- [U-61,461] the “Agar Diffusion 1 mg./ml. S.aureus UC 80 (inhibition zone)” value (S.aureus UC 80; [12]) was 35, the “MIC S.aureus UC-570” value (S.aureus UC-570; BHI broth, sensitive strain) was 0.25 µg/mL and the “MIC S.aureus UC-76” value (S.aureus UC-76; BHI broth, sensitive strain) was 0.50 µg/mL. The “MIC S.pyrogenes UC-152” value (S.pyrogenes UC-152; BHI broth) was 2.50 µg/mL, the “Agar Diffusion 1 mg./ml. S.lutea UC-130 (inhibition zone)” value (S.lutea UC-130; [12]) was 41 and the “MIC S.aureus UC-746” value (S.aureus UC-746; BHI broth, strain resistant to tetracycline) was 0.50 µg/mL.

COC1CC2C=CC3C4OC2(C(C)=CC(C)C(C(C)O)OC1=O)C3C(O)C(C)C4OC(=O)c1ccco1 (stereo not drawn) [U-60,898, 9-O--Furoyl-] showed a zone of inhibition at 1000 µg/mL (S.aureus UC 80; read-out: Agar Diffusion 1 mg./ml. S.aureus UC 80 (inhibition zone)) of 30 mm, an MIC (S.aureus UC-570; [3]) of 7.8 µg/mL (≈ 15.1 µM) and an MIC (S.aureus UC-76; [4]) of 7.8 µg/mL (≈ 15.1 µM). For the same compound, the MIC (S.pyrogenes UC-152; [11]) was over 250 µg/mL, the zone of inhibition at 1000 µg/mL (S.lutea UC-130; [6]) was 40 mm and the MIC (S.aureus UC-746; [7]) was 7.8 µg/mL (≈ 15.1 µM).

With COC1CC2C=CC3C4OC2(C(C)=CC(C)C(C(C)O)OC1=O)C3C(O)C(C)C4OC(=O)c1cc2ccccc2[nH]1 (stereo not drawn) [U-61,273, 9-O--Indole-2-carbonyl-] the “insoluble” value [1] was “insoluble” and the zone of inhibition at 1000 µg/mL (S.lutea UC-130; [6]) was 22 mm.

For COC1CC2C=CC3C4OC2(C(C)=CC(C)C(C(C)O)OC1=O)C3C(O)C(C)C4O (stereo not drawn) [U-59,761, nodusmicin], the “activity against B. fragilis” value (B. fragilis) was “active”, the “activity against K. pneumoniae” value (K. pneumoniae) was “active” and the MIC (S.aureus UC-570; [8]) was 250 µg/mL (≈ 592 µM). For the same compound, the “activity against Mycobacterium avium” value (Mycobacterium avium) was “active”, the MIC (S.aureus UC-76; [9]) was 125 µg/mL (≈ 296 µM) and the MIC (S.pyrogenes UC-152; [5]) was 500 µg/mL (≈ 1180 µM). The “activity against S. lutea” value (S. lutea) was “active”, the “activity against C. perfringens” value (C. perfringens) was “active” and the zone of inhibition at 1000 µg/mL (S.lutea UC-130; [6]) was 40 mm. The MIC (S.aureus UC-746; [10]) was 250 µg/mL (≈ 592 µM).
